Test system: Kibdelosporangium philippinensis (cultures A80407 and A80407.4)
Assay: Resistance to antibiotics of the producing cultures, antibiotic sensitivity discs on seeded ISP No. 2 agar
Settings: both cultures

With `CC(=O)OCC1=C(C(=O)O)N2C(=O)[C@@H](NC(=O)Cc3cccs3)[C@H]2SC1` [cephalothin] the Resistance to antibiotics (30 μg) was “resistant”.

With `O=C(N[C@H](CO)[C@H](O)c1ccc([N+](=O)[O-])cc1)C(Cl)Cl` [chloramphenicol] the Resistance to antibiotics (30 μg) was “sensitive”.

`CC[C@H]1OC(=O)[C@H](C)[C@@H](O[C@H]2C[C@@](C)(OC)[C@@H](O)[C@H](C)O2)[C@H](C)[C@@H](O[C@@H]2O[C@H](C)C[C@H](N(C)C)[C@H]2O)[C@](C)(O)C[C@@H](C)C(=O)[C@H](C)[C@@H](O)[C@]1(C)O` [erythromycin] was tested, and the Resistance to antibiotics (15 μg) was “sensitive”.

With `CCC[C@@H]1C[C@@H](C(=O)N[C@@H]([C@H]2O[C@H](SC)[C@H](O)[C@@H](O)[C@H]2O)[C@@H](C)O)N(C)C1` [lincomycin] the Resistance to antibiotics (2 μg) was “resistant”.

For `C1N2CN3CN1CN(C2)C3` [mandelamine], the Resistance to antibiotics (3 μg) was “sensitive”.

For `CCn1cc(C(=O)O)c(=O)c2ccc(C)nc21` [nalidixic acid], the Resistance to antibiotics (30 μg) was “resistant”.

`NC[C@@H]1O[C@H](O[C@H]2[C@@H](O)[C@H](O[C@@H]3[C@@H](O)[C@H](N)C[C@H](N)[C@H]3O[C@H]3O[C@H](CN)[C@@H](O)[C@H](O)[C@H]3N)O[C@@H]2CO)[C@H](N)[C@@H](O)[C@@H]1O` [neomycin] was tested, and the Resistance to antibiotics (30 μg) was “sensitive”.

With `CO[C@@H]1[C@@H](OC(N)=O)[C@@H](O)[C@H](Oc2ccc3c(O)c(NC(=O)c4ccc(O)c(CC=C(C)C)c4)c(=O)oc3c2C)OC1(C)C` [novobiocin] the Resistance to antibiotics (30 μg) was “sensitive”.

In the case of `CC1(C)S[C@@H]2[C@H](NC(=O)Cc3ccccc3)C(=O)N2[C@H]1C(=O)O` [penicillin G], the Resistance to antibiotics (10 units) is reported as “resistant”.

With `CO[C@H]1/C=C/O[C@@]2(C)Oc3c(C)c(O)c4c(O)c(c(/C=N/N5CCN(C)CC5)c(O)c4c3C2=O)NC(=O)/C(C)=C\C=C\[C@H](C)[C@H](O)[C@@H](C)[C@@H](O)[C@@H](C)[C@H](OC(C)=O)[C@@H]1C` [rifampin] the Resistance to antibiotics (5 μg) was “sensitive”.

In the case of `Nc1ccc(S(=O)(=O)Nc2ncccn2)cc1` [sulfadiazine], the Resistance to antibiotics (300 units) is reported as “resistant”.

For `CN(C)C1C(=O)C(C(N)=O)=C(O)C2(O)C(=O)C3=C(O)c4c(O)cccc4C(C)(O)C3CC12` (stereo not drawn) [tetracycline], the Resistance to antibiotics (10 μg) was “sensitive”.

With `NC[C@H]1O[C@H](O[C@H]2[C@H](O)[C@@H](O[C@H]3O[C@H](CO)[C@@H](O)[C@H](N)[C@H]3O)[C@H](N)C[C@@H]2N)[C@H](N)C[C@@H]1O` [tobramycin] the Resistance to antibiotics (10 μg) was “resistant”.

For `COc1cc(Cc2cnc(N)nc2N)cc(OC)c1OC` [trimethoprim], the Resistance to antibiotics (5 μg) was “resistant”.

With `CN[C@H](CC(C)C)C(=O)N[C@H]1C(=O)N[C@@H](CC(N)=O)C(=O)N[C@H]2C(=O)N[C@H]3C(=O)N[C@H](C(=O)N[C@H](C(=O)O)c4cc(O)cc(O)c4-c4cc3ccc4O)[C@H](O)c3ccc(c(Cl)c3)Oc3cc2cc(c3O[C@@H]2O[C@H](CO)[C@@H](O)[C@H](O)[C@H]2O[C@H]2C[C@](C)(N)[C@H](O)[C@H](C)O2)Oc2ccc(cc2Cl)[C@H]1O` [vancomycin] the Resistance to antibiotics (30 μg) was “resistant”.

gentamycin was tested, and the Resistance to antibiotics (10 μg) was “sensitive”.

With oleandomycin the Resistance to antibiotics (15 μg) was “resistant”.

polymixin B was tested, and the Resistance to antibiotics (300 units) was “resistant”.

Reference: US5213797A, “A80407 antibiotics” (Eli Lilly and Company, priority 1990, dated 1993)
